Literature values in patent US11110113B2, “Compositions and methods for treating depression” (Gentelon, Inc., priority 2016, dated 2021).

How the values were obtained:
[1] = test system: Major Depressive Disorder; settings: trial versus placebo
cerebral tissue = settings: six months, versus placebo; schizophrenia and Huntington's disease
[2] = test system: Major Depressive Disorder; settings: double-blind studies; intravenous or intramuscular (parenteral)
[3] = oral SAMe

In the case of `CC/C=C\C/C=C\C/C=C\C/C=C\C/C=C\C/C=C\CCC(=O)O` [DHA, all-cis-4,7,10,13,16,19-docosahexaenoic acid], the “efficacy in major depressive disorder / mood-disordered population” value [1] is given as “negative result”.

In the case of `CC/C=C\C/C=C\C/C=C\C/C=C\C/C=C\CCCC(=O)OCC` [E-EPA], the “grey and white matter” value (cerebral tissue) is listed as “significant increase” and the “efficacy in major depressive disorder / mood-disordered population” value [1] is listed as “advantage over placebo”.

In the case of `C[S+](CC[C@H](N)C(=O)[O-])C[C@H]1O[C@@H](n2cnc3c(N)ncnc32)[C@H](O)[C@@H]1O` (stereo partly shown) [SAMe, S-Adenosyl methionine], the “efficacy in treatment of Major Depressive Disorder” value [2] is listed as “effective” and the half-life [3] is listed as “about 100 minutes”.

For `Nc1nc2ncc(CNc3ccc(C(=O)N[C@@H](CCC(=O)O)C(=O)O)cc3)nc2c(=O)[nH]1` [folic acid], the depression symptomatology (depression; longer term supplementation, patients with unipolar and bipolar depression) is listed as “statistically significant improvements”.

In the case of `Nc1nc2c(c(=O)[nH]1)N(C=O)C(CNc1ccc(C(=O)N[C@@H](CCC(=O)O)C(=O)O)cc1)CN2` (stereo partly shown) [folinic acid], the depression scores (depression; patients inadequately responsive to monotherapy with a serotonin reuptake inhibitor) is given as “significant reduction”.
